# System: ATCC13883 strain (Klebsiella pneumoniae)
# Experiment: Checkerboard antibacterial synergistic activity test with polymyxin E (FIC)
# Format: cell-based
# Design: key: FIC≤0.5 synergy; 0.5–1 additive; 1–2 indifferent; ≥2 antagonism
# Conditions: combined with polymyxin E
# Protocol: (§1) Polymyxin E was diluted in sterile MH broth medium to concentrations of 16, 8, 4, 2, 1, 0.5, 0.25, 0.125, 0.0625, 0.031, and 0.015 μg/ml, and the drug to be tested was diluted to concentrations of 256, 128, 64, 32, 16, 8, and 4 μg/ml. According to the checkerboard method, combinations of the drug to be tested and polymyxin at different concentrations in ascending order were placed into a 96-well plate, and corresponding blank control groups were set up. 50 μl of the drug solution was added to each well, then 100 μl of bacterial liquid was added, and incubated in a 37° C. incubator for 16 hours. […] Calculation and judgment criteria:
# (§2) Fractional Inhibitory Concentration (FIC) is calculated as follows: […]
# (§3) Judgment criteria: FIC≤0.5: synergistic effect; 0.5<FIC<1: additive effect; 1<FIC<2: indifferent effect; FIC≥2: antagonistic effect.
# (§4) In the table: ATCC19606 strain is Acinetobacter baumannii, ATCC25922 strain is Escherichia coli, ATCC13883 strain is Klebsiella pneumoniae, ATCC9027 strain is Pseudomonas aeruginosa. All four strains were purchased from ATCC.
row,SMILES,Synergistic activity (FIC value) ATCC13883
1,NC(N)=Nc1nc(-c2cccc(-c3ccccc3)c2)cs1 [Compound I-74],0.33
2,CCc1oc(N=C2NCCCN2)nc1-c1cccc(C(C)C)c1 [Compound I-165],0.31
3,Cc1ccccc1Oc1cccc(-c2csc(N=C(N)N)n2)c1 [Compound I-91],0.19
4,Cc1ccc(NC(=O)Nc2cccc(-c3nc(N=C(N)N)sc3C)c2)c(C)c1 [Compound I-132],0.16
5,Clc1ccc(Oc2ccccc2)c(-c2coc(N=C3NCCCN3)n2)c1 [Compound I-134],0.53
6,CC(C)(C)c1cc(-c2csc(NC3=NCCCN3)n2)cc(C(C)(C)C)c1O [Compound I-163],0.19
7,Ic1ccccc1-c1c[nH]c(N=C2NCCCN2)n1 [Compound I-179],1.25
8,CC(C)=CCOc1cc(OCC=C(C)C)cc(-c2nc(N=C(N)N)[nH]c2C)c1 [Compound I-49],0.53
9,COc1ccc(Oc2ccccc2-c2nc(N=C3NCCCN3)sc2C)c(C)c1 [Compound I-144],0.16

# System: ATCC19606 strain (Acinetobacter baumannii)
# Experiment: as above
# Format: cell-based
# Design: key: FIC≤0.5 synergy; 0.5–1 additive; 1–2 indifferent; ≥2 antagonism
# Conditions: combined with polymyxin E
# Protocol: as §1, §2, §3, §4
row,SMILES,Synergistic activity (FIC value) ATCC19606
1,NC(N)=Nc1nc(-c2cccc(-c3ccccc3)c2)cs1 [Compound I-74],0.15
2,CCc1oc(N=C2NCCCN2)nc1-c1cccc(C(C)C)c1 [Compound I-165],0.13
3,Cc1ccccc1Oc1cccc(-c2csc(N=C(N)N)n2)c1 [Compound I-91],0.04
4,Cc1ccc(NC(=O)Nc2cccc(-c3nc(N=C(N)N)sc3C)c2)c(C)c1 [Compound I-132],0.03
5,Clc1ccc(Oc2ccccc2)c(-c2coc(N=C3NCCCN3)n2)c1 [Compound I-134],1.25
6,CC(C)(C)c1cc(-c2csc(NC3=NCCCN3)n2)cc(C(C)(C)C)c1O [Compound I-163],0.38
7,Ic1ccccc1-c1c[nH]c(N=C2NCCCN2)n1 [Compound I-179],1.25
8,CC(C)=CCOc1cc(OCC=C(C)C)cc(-c2nc(N=C(N)N)[nH]c2C)c1 [Compound I-49],0.25
9,COc1ccc(Oc2ccccc2-c2nc(N=C3NCCCN3)sc2C)c(C)c1 [Compound I-144],0.03

# System: ATCC25922 strain (Escherichia coli)
# Experiment: as above
# Format: cell-based
# Design: key: FIC≤0.5 synergy; 0.5–1 additive; 1–2 indifferent; ≥2 antagonism
# Conditions: combined with polymyxin E
# Protocol: as §1, §2, §3, §4
row,SMILES,Synergistic activity (FIC value) ATCC25922
1,NC(N)=Nc1nc(-c2cccc(-c3ccccc3)c2)cs1 [Compound I-74],0.39
2,CCc1oc(N=C2NCCCN2)nc1-c1cccc(C(C)C)c1 [Compound I-165],0.38
3,Cc1ccccc1Oc1cccc(-c2csc(N=C(N)N)n2)c1 [Compound I-91],0.26
4,Cc1ccc(NC(=O)Nc2cccc(-c3nc(N=C(N)N)sc3C)c2)c(C)c1 [Compound I-132],0.18
5,Clc1ccc(Oc2ccccc2)c(-c2coc(N=C3NCCCN3)n2)c1 [Compound I-134],1.25
6,CC(C)(C)c1cc(-c2csc(NC3=NCCCN3)n2)cc(C(C)(C)C)c1O [Compound I-163],0.04
7,Ic1ccccc1-c1c[nH]c(N=C2NCCCN2)n1 [Compound I-179],1.25
8,CC(C)=CCOc1cc(OCC=C(C)C)cc(-c2nc(N=C(N)N)[nH]c2C)c1 [Compound I-49],1.25
9,COc1ccc(Oc2ccccc2-c2nc(N=C3NCCCN3)sc2C)c(C)c1 [Compound I-144],0.18

# System: ATCC9027 strain (Pseudomonas aeruginosa)
# Experiment: as above
# Format: cell-based
# Design: key: FIC≤0.5 synergy; 0.5–1 additive; 1–2 indifferent; ≥2 antagonism
# Conditions: combined with polymyxin E
# Protocol: as §1, §2, §3, §4
row,SMILES,Synergistic activity (FIC value) ATCC9027
1,NC(N)=Nc1nc(-c2cccc(-c3ccccc3)c2)cs1 [Compound I-74],0.62
2,CCc1oc(N=C2NCCCN2)nc1-c1cccc(C(C)C)c1 [Compound I-165],0.53
3,Cc1ccccc1Oc1cccc(-c2csc(N=C(N)N)n2)c1 [Compound I-91],0.52
4,Cc1ccc(NC(=O)Nc2cccc(-c3nc(N=C(N)N)sc3C)c2)c(C)c1 [Compound I-132],0.28
5,Clc1ccc(Oc2ccccc2)c(-c2coc(N=C3NCCCN3)n2)c1 [Compound I-134],0.52
6,CC(C)(C)c1cc(-c2csc(NC3=NCCCN3)n2)cc(C(C)(C)C)c1O [Compound I-163],0.04
7,Ic1ccccc1-c1c[nH]c(N=C2NCCCN2)n1 [Compound I-179],0.51
8,CC(C)=CCOc1cc(OCC=C(C)C)cc(-c2nc(N=C(N)N)[nH]c2C)c1 [Compound I-49],0.53
9,COc1ccc(Oc2ccccc2-c2nc(N=C3NCCCN3)sc2C)c(C)c1 [Compound I-144],0.28

# System: ATCC13883 strain (Klebsiella pneumoniae)
# Experiment: Broth microdilution, antibacterial activity of the compound used alone
# Format: cell-based
# Conditions: not given
# From the text: (§5) The broth microdilution method was used to test the antibacterial effects of the compounds of the present invention against various Gram-negative bacterial strains when used alone.
row,SMILES,"Antibacterial activity of the compound of Formula I, ATCC13883 [µg/mL]"
1,CCc1oc(N=C2NCCCN2)nc1-c1cccc(C(C)C)c1 [Compound I-165],256
2,Cc1ccccc1Oc1cccc(-c2csc(N=C(N)N)n2)c1 [Compound I-91],128
3,Cc1ccc(NC(=O)Nc2cccc(-c3nc(N=C(N)N)sc3C)c2)c(C)c1 [Compound I-132],256
4,Clc1ccc(Oc2ccccc2)c(-c2coc(N=C3NCCCN3)n2)c1 [Compound I-134],256
5,Ic1ccccc1-c1c[nH]c(N=C2NCCCN2)n1 [Compound I-179],128
6,CC(C)=CCOc1cc(OCC=C(C)C)cc(-c2nc(N=C(N)N)[nH]c2C)c1 [Compound I-49],256
7,COc1ccc(Oc2ccccc2-c2nc(N=C3NCCCN3)sc2C)c(C)c1 [Compound I-144],256

# Same assay, conditions: read-out: Antibacterial activity of the compound of Formula I, ATCC13883
row,MIC [µg/mL],SMILES
1,256,NC(N)=Nc1nc(-c2cccc(-c3ccccc3)c2)cs1 [Compound I-74]
2,128,CC(C)(C)c1cc(-c2csc(NC3=NCCCN3)n2)cc(C(C)(C)C)c1O [Compound I-163]

# System: ATCC19606 strain (Acinetobacter baumannii)
# Experiment: as above
# Format: cell-based
# Conditions: not given
# From the text: as §5
row,SMILES,"Antibacterial activity of the compound of Formula I, ATCC19606 [µg/mL]"
1,CCc1oc(N=C2NCCCN2)nc1-c1cccc(C(C)C)c1 [Compound I-165],256
2,Cc1ccccc1Oc1cccc(-c2csc(N=C(N)N)n2)c1 [Compound I-91],256
3,Cc1ccc(NC(=O)Nc2cccc(-c3nc(N=C(N)N)sc3C)c2)c(C)c1 [Compound I-132],256
4,Clc1ccc(Oc2ccccc2)c(-c2coc(N=C3NCCCN3)n2)c1 [Compound I-134],256
5,Ic1ccccc1-c1c[nH]c(N=C2NCCCN2)n1 [Compound I-179],256
6,CC(C)=CCOc1cc(OCC=C(C)C)cc(-c2nc(N=C(N)N)[nH]c2C)c1 [Compound I-49],256
7,COc1ccc(Oc2ccccc2-c2nc(N=C3NCCCN3)sc2C)c(C)c1 [Compound I-144],256

# Same assay, conditions: read-out: Antibacterial activity of the compound of Formula I, ATCC19606
row,MIC [µg/mL],SMILES
1,256,NC(N)=Nc1nc(-c2cccc(-c3ccccc3)c2)cs1 [Compound I-74]
2,256,CC(C)(C)c1cc(-c2csc(NC3=NCCCN3)n2)cc(C(C)(C)C)c1O [Compound I-163]

# System: ATCC25922 strain (Escherichia coli)
# Experiment: as above
# Format: cell-based
# Conditions: not given
# From the text: as §5
row,SMILES,"Antibacterial activity of the compound of Formula I, ATCC25922 [µg/mL]"
1,CCc1oc(N=C2NCCCN2)nc1-c1cccc(C(C)C)c1 [Compound I-165],256
2,Cc1ccccc1Oc1cccc(-c2csc(N=C(N)N)n2)c1 [Compound I-91],128
3,Cc1ccc(NC(=O)Nc2cccc(-c3nc(N=C(N)N)sc3C)c2)c(C)c1 [Compound I-132],256
4,Clc1ccc(Oc2ccccc2)c(-c2coc(N=C3NCCCN3)n2)c1 [Compound I-134],256
5,Ic1ccccc1-c1c[nH]c(N=C2NCCCN2)n1 [Compound I-179],128
6,CC(C)=CCOc1cc(OCC=C(C)C)cc(-c2nc(N=C(N)N)[nH]c2C)c1 [Compound I-49],256
7,COc1ccc(Oc2ccccc2-c2nc(N=C3NCCCN3)sc2C)c(C)c1 [Compound I-144],256

# Same assay, conditions: read-out: Antibacterial activity of the compound of Formula I, ATCC25922
row,MIC [µg/mL],SMILES
1,256,NC(N)=Nc1nc(-c2cccc(-c3ccccc3)c2)cs1 [Compound I-74]
2,128,CC(C)(C)c1cc(-c2csc(NC3=NCCCN3)n2)cc(C(C)(C)C)c1O [Compound I-163]

# System: ATCC9027 strain (Pseudomonas aeruginosa)
# Experiment: as above
# Format: cell-based
# Conditions: not given
# From the text: as §5
row,SMILES,"Antibacterial activity of the compound of Formula I, ATCC9027 [µg/mL]"
1,CCc1oc(N=C2NCCCN2)nc1-c1cccc(C(C)C)c1 [Compound I-165],256
2,Cc1ccccc1Oc1cccc(-c2csc(N=C(N)N)n2)c1 [Compound I-91],64
3,Cc1ccc(NC(=O)Nc2cccc(-c3nc(N=C(N)N)sc3C)c2)c(C)c1 [Compound I-132],256
4,Clc1ccc(Oc2ccccc2)c(-c2coc(N=C3NCCCN3)n2)c1 [Compound I-134],256
5,Ic1ccccc1-c1c[nH]c(N=C2NCCCN2)n1 [Compound I-179],64
6,CC(C)=CCOc1cc(OCC=C(C)C)cc(-c2nc(N=C(N)N)[nH]c2C)c1 [Compound I-49],256
7,COc1ccc(Oc2ccccc2-c2nc(N=C3NCCCN3)sc2C)c(C)c1 [Compound I-144],256

# Same assay, conditions: read-out: Antibacterial activity of the compound of Formula I, ATCC9027
row,MIC [µg/mL],SMILES
1,256,NC(N)=Nc1nc(-c2cccc(-c3ccccc3)c2)cs1 [Compound I-74]
2,64,CC(C)(C)c1cc(-c2csc(NC3=NCCCN3)n2)cc(C(C)(C)C)c1O [Compound I-163]

# — patent publication US20260250257A1, “ANTIBACTERIAL AND SYNERGISTIC ACTIVE COMPOUND AND USE THEREOF” (EAST CHINA UNIVERSITY OF SCIENCE AND TECHNOLOGY, priority 2023, published 2026)
